# According to US20090143285A1, “TARGET PROTEIN AND TARGET GENE FOR DRUG DISCOVERY AND SCREENING METHOD” (REVERSE PROTEOMICS RESEARCH INSTITUTE CO., LTD., priority 2005, published 2009):
# Entries after “also recorded” stand apart in the source; their conditions may differ. Like-named read-outs stand apart in the source and are kept apart here.
# Legend:
# [1] = test system: FLJXXXXX-derived proteins; test: SEC/MS spin column interaction analysis of FLJXXXXX-derived proteins and various compounds (Tables 30-1 to 30-4); format: binding, human; conditions: SEC spin column filtrate, spectral intensity increased with doses of compound and protein
# FLJ38897-derived protein = target: T1, FLJ38897-derived protein (Homo sapiens, UniProt P57764); test: SEC/MS interaction analysis, FLJ38897-derived protein (GSDMDC1); format: binding; conditions: spin column method; mixture with protein vs buffer solution alone; data not shown
# T1 construct: His-tag (N); made in house; host or cells: Escherichia coli BL21star(DE3)pLysS
# T1 sequence (P57764 265-484): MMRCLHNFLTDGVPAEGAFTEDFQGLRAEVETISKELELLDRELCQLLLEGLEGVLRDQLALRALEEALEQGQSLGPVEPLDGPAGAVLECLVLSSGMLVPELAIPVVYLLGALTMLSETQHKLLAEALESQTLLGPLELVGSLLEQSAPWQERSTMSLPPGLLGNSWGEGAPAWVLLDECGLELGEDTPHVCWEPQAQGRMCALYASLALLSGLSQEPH
# Source text: (§1) To analyze the interactions between commonly used drugs and proteins expressed from human full-length cDNA clones while keeping both the proteins and the compounds in non-modified, non-immobilized state, size exclusion chromatography (SEC) and mass analysis were used in combination. The specific procedures are shown below.
# (§2) The compound-protein mixture prepared in step 1 was subjected to chromatography using an SEC column, the compound and the protein were separated by SEC, and the compound that interacted with the bound compound or protein contained in the protein fraction was analyzed using a mass analyzer.
# (§3) Protein concentrations were measured using BCA Protein Assay (PIERCE), in consideration of the purity calculated by SDS-PAGE.
# (§4) Mass analysis was performed using LCQ DECA XP (Thermoelectron) or Q-TOF micro (Micromass), equipped with an ESI probe. The LC pump used was Agilent 1100 (Yokogawa Analytical Systems), and the autosampler used was HTC-PAL (CTC Analytics) equipped with a cooling stacker. The SEC column used was a micro-LC column or a 384-well spin column. […]
# (§5) In the 384-well spin column method, Unifilter 100 (Whatman), packed with 10 μL (dry volume) of Bio-Gel P6 (BIO-RAD) and swollen with milliQ water, was used as the SEC column. […] The SEC spin column was mounted on an acetonitrile-aliquoted 384-well U-bottom plate and centrifuged; the SEC spin column filtrate, which is a protein fraction, was recovered in 50% acetonitrile. The protein precipitate produced by the acetonitrile was removed via centrifugation and filtration for deproteinization; the resulting filtrate was concentrated by centrifugal concentration and re-dissolved in 10 μL of 50% methanol to obtain a mass analysis sample. The mobile phase supplied to the mass analyzer was 0.1% formic acid/50% methanol solution in the positive ion mode, and 0.1% ammonia/50% methanol solution in the negative ion mode; these mobile phases were used at a flow rate of 40 μL/min. 2-μL of mass analysis samples were injected using an autosampler at 2-minute intervals; the mass spectral intensity of the compound was measured to retrieve the spectral intensity of the pharmaceutical compound contained in the SEC spin column filtrate (protein fraction eluted from SEC).
# FLJ20972-derived protein = test system: FLJ20972-derived protein
# Source text: as §1, §2, §3
# Mass analysis was performed using LCQ DECA XP (Thermoelectron) or Q-TOF micro (Micromass), equipped with an ESI probe. The LC pump used was Agilent 1100 (Yokogawa Analytical Systems), and the autosampler used was HTC-PAL (CTC Analytics) equipped with a cooling stacker. The SEC column used was a micro-LC column or a 384-well spin column.
# The SEC column used for the micro-LC method was a TSKgel super SW2000 (TOSOH) cartridge column (1.0 mm ID×10 mm) or a TSKgel super SW2000 (TOSOH) column (1.0 mm ID×30 mm), with 10 mM ammonium acetate aqueous solution serving as the mobile phase. A conditioning solvent (0.5% formic acid/methanol solution in the positive ion mode, 0.5% ammonia/methanol solution in the negative ion mode) was mixed downstream of the SEC column via a Tee connector; the column was connected to the ESI of the mass analyzer. The flow rate was set at 40 μL/min for the SEC column side, and 10 μL/min for the conditioning solvent side.
# Specifically, if the protein and the compound interact with each other, the acceleration of the elution of the compound molecules that are bound to the protein when the protein is overtaking the compound in the SEC column occurs, resulting in a change in the mass chromatogram of the compound depending on the presence or absence of the protein.
# as §5
# FLJ41550-derived protein = test: SEC/MS interaction analysis, FLJ41550-derived protein (SAMHD1); format: binding, human
# Source text: as §1, §2, §3, §4, §5
# [2] = compound 12.5 μM, protein 10 μM
# [3] = compound 12.5 μM, protein 25 μM
# [4] = compound 62.5 μM, protein 10 μM
# [5] = compound 62.5 μM, protein 25 μM
# [6] = spin column method, doses of both compound and protein varied
structure (smiles),measurement,setting,value
C1CCC(C(CC2CCCCN2)C2CCCCC2)CC1 (stereo not shown) [perhexyline],FLJ No of the derived protein with which the compound was judged to exhibit a concentration-dependent interaction,[1]; listed as perhexiline,FLJ37909; also recorded: FLJ38897
same,interaction judged from mass spectrum peak intensity of the compound in the spin column filtrate,FLJ38897-derived protein,there was an interaction
CNCCCC1c2ccccc2C=Cc2ccccc21 [protriptyline],spectrum intensity of the compound in the SEC spin column filtrate,"FLJ20972-derived protein; compound 12.5 μM, protein 0 μM",39179
same,spectrum intensity of the compound in the SEC spin column filtrate,"FLJ20972-derived protein; compound 12.5 μM, protein 5 μM",27260
same,spectrum intensity of the compound in the SEC spin column filtrate,FLJ20972-derived protein; [2],39545
same,spectrum intensity of the compound in the SEC spin column filtrate,FLJ20972-derived protein; [3],44522
same,spectrum intensity of the compound in the SEC spin column filtrate,"FLJ20972-derived protein; compound 25 μM, protein 0 μM",53214
same,spectrum intensity of the compound in the SEC spin column filtrate,"FLJ20972-derived protein; compound 25 μM, protein 5 μM",76771
same,spectrum intensity of the compound in the SEC spin column filtrate,"FLJ20972-derived protein; compound 25 μM, protein 10 μM",105694
same,spectrum intensity of the compound in the SEC spin column filtrate,"FLJ20972-derived protein; compound 25 μM, protein 25 μM",132099
same,spectrum intensity of the compound in the SEC spin column filtrate,"FLJ20972-derived protein; compound 62.5 μM, protein 0 μM",239324
same,spectrum intensity of the compound in the SEC spin column filtrate,FLJ20972-derived protein; [4],390017
same,spectrum intensity of the compound in the SEC spin column filtrate,FLJ20972-derived protein; [5],754873
same,interaction judged from spectrum intensity of the compound in the SEC spin column filtrate (protein fraction eluted from SEC),FLJ20972-derived protein; [6],concentration-dependent interaction
"CN1CCN(CCCN2c3ccccc3Sc3ccc(S(=O)(=O)N(C)C)cc32)CC1 [thioproperasine, thioproperazine]",spectrum intensity of the compound in the SEC spin column filtrate,"FLJ41550-derived protein; compound 12.5 μM, protein 0 μM",252410
same,spectrum intensity of the compound in the SEC spin column filtrate,"FLJ41550-derived protein; compound 12.5 μM, protein 5 μM",377673
same,spectrum intensity of the compound in the SEC spin column filtrate,FLJ41550-derived protein; [2],478699
same,spectrum intensity of the compound in the SEC spin column filtrate,FLJ41550-derived protein; [3],941513
same,spectrum intensity of the compound in the SEC spin column filtrate,"FLJ41550-derived protein; compound 25 μM, protein 0 μM",262646
same,spectrum intensity of the compound in the SEC spin column filtrate,"FLJ41550-derived protein; compound 25 μM, protein 5 μM",778927
same,spectrum intensity of the compound in the SEC spin column filtrate,"FLJ41550-derived protein; compound 25 μM, protein 10 μM",1198533
same,spectrum intensity of the compound in the SEC spin column filtrate,"FLJ41550-derived protein; compound 25 μM, protein 25 μM",983016
same,spectrum intensity of the compound in the SEC spin column filtrate,"FLJ41550-derived protein; compound 62.5 μM, protein 0 μM",1132948
same,spectrum intensity of the compound in the SEC spin column filtrate,"FLJ41550-derived protein; compound 62.5 μM, protein 5 μM",1457362
same,spectrum intensity of the compound in the SEC spin column filtrate,FLJ41550-derived protein; [4],2445959
same,spectrum intensity of the compound in the SEC spin column filtrate,FLJ41550-derived protein; [5],2997892
same,interaction judged from spectrum intensity of the compound in the SEC spin column filtrate (protein fraction eluted from SEC),FLJ41550-derived protein; [6],concentration-dependent interaction
same,FLJ No of the derived protein with which the compound was judged to exhibit a concentration-dependent interaction,[1],FLJ37909; also recorded: FLJ41550
